In the NIST ThermoML archive (doi:10.1021/je100211s):
± gives the expanded uncertainty stated by the source.

Test: mn = molality of the nth substance listed, in mol/kg
Details: 101 kPa, Liquid; for viscosity: Capillary tube (Ostwald / Ubbelohde) method; for mass density: Vibrating tube method

CCCCCCCCCCCCCCCC[N+](C)(C)C.[Br-] [N,N,N-trimethyl-1-hexadecanaminium bromide] + O
Details | mass density, 298.15 K [kg/m3] | mass density, 308.15 K [kg/m3] | mass density, 318.15 K [kg/m3] | viscosity, 298.15 K [mPa·s] | viscosity, 308.15 K [mPa·s] | viscosity, 318.15 K [mPa·s]
m1 = 0.001 | 997.2 ± 0.5 | 994.2 ± 0.5 | 990.4 ± 0.5 | 0.899 ± 0.009 | 0.744 ± 0.008 | 0.617 ± 0.008
m1 = 0.003 | 997.3 ± 0.5 | 994.3 ± 0.5 | 990.5 ± 0.5 | 0.91 ± 0.009 | 0.752 ± 0.008 | 0.622 ± 0.008
m1 = 0.005 | 997.4 ± 0.5 | 994.4 ± 0.5 | 990.6 ± 0.5 | 0.921 ± 0.009 | 0.76 ± 0.008 | 0.635 ± 0.008
